The values below come from US20230118497A1, “PYRAZOLE-CONTAINING POLYCYCLIC DERIVATIVE INHIBITOR, PREPARATION METHOD THEREFOR AND APPLICATION THEREOF” (Shanghai Hansoh Biomedical Co., Ltd., priority 2019, published 2023).

The conditions of data set [1]: phase 2 RELIEF trial, patients with refractory chronic cough, any dose; cited from earlier work.
Data set [2] has as its system P2X3/P2X2/3. To be noted: background; cited from earlier work.
The conditions of data set [3]: cited from earlier work.
The nature of data set [4]: Pharmacokinetic assay in Balb/C mice. Format: in vivo. To be noted: male, mouse, po, p.o. 5 mg/kg, plasma, 0.5% CMC-Na (1% Tween 80). The protocol:
Test Example 3. Pharmacokinetic Assay in Balb/C Mice
Balb/C mice were used as test animals. The pharmacokinetic behavior of the compounds of Examples was studied in mouse body (plasma) by orally administration at a dose of 5 mg/kg.
Male Balb/C mice (6 mice per group), purchased from Shanghai Jiesijie Laboratory Animal Co., LTD, with Certificate No.: SCXK (Shanghai) 2013-0006 N0.311620400001794.
5 g of hydroxyethyl cellulose (HEC, CMC-Na, viscosity: 800-1200 Cps) was weighed and dissolved in 1000 mL of purified water, followed by addition of 10 g of Tween80.
After an overnight fast, male Balb/C mice were administered p.o. with the test compound at a dose of 5 mg/kg and a volume of 10 mL/kg.
0.04 mL of blood was taken from the orbit of the mouse before administration and at 0, 0.5, 1, 2, 4, 6, 8 and 24 hours after administration. The samples were stored in EDTA-K2 tubes, and centrifuged for 6 minutes at 4° C., 6000 rpm to separate the plasma. The plasma samples were stored at −80° C.
1) 160 μL of acetonitrile was added to 20 μL of the plasma sample for precipitation, and then the mixture was centrifuged at 3500×g for 5 to 20 minutes. 2) After the above process, 100 μL of the supernatant was taken to analyze the concentration of the test compound by LC/MS/MS.
2.7 Liquid Chromatography Analysis • Liquid chromatography condition: Shimadzu LC-20AD pump • Mass spectrometry condition: AB Sciex API 4000 mass spectrometer • Chromatographic column: phenomenex Gemiu 5 um C18 50×4.6 mm • Mobile phase: Eluent A was 0.1% formic acid in water, and Eluent B was acetonitrile • Flow rate: 0.8 mL/min • Elution time: 0-4.0 minutes the eluent is as follows:
The main parameters of pharmacokinetics were calculated by WinNonlin 8.2.

For data set [5], the target named is T1, 1321N1-hP2X3 receptor (Homo sapiens, UniProt P56373).
T1 construct: host or cells: 1321N1
T1 sequence (P56373 1-397): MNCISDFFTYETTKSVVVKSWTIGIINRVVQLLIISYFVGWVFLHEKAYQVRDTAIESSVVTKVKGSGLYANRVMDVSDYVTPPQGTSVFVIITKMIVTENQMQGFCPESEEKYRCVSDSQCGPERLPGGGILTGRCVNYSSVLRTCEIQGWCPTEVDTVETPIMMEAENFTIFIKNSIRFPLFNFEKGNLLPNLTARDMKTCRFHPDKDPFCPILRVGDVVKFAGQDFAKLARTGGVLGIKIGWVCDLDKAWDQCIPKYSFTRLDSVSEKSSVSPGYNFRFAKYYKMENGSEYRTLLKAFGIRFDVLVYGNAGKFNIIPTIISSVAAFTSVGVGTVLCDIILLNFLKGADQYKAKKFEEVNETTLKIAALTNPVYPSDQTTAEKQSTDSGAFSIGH
Kind of data set: Calcium ion mobility (FLIPR) in cells stably expressing 1321N1-hP2X3 receptors. To be noted: calcium signal, agonist at EC80. The class given is cell-based. The method, then: Test Example 1. Determination of the Effect of the Compounds of the Present Invention on Calcium Ion Mobility in Cells Stably Expressing 1321N1-hP2X3 Receptors
To determine the inhibitory activity of the compounds on 1321N1-hP2X3 receptor.
Stably transfected cell line: 1321N1-hP2X3 (supplied by Shanghai ChemPartner Chemical Research Co., Ltd.).
(§1) Assay buffer: 1*HBSS+20 mM HEPES;
Cell culture medium: DMEM+10% FBS+75 µg/mL Hygromycin B+300 µg/mL G418;
(§2) Plating medium: DMEM+10% DPBS;
(§3) 0.5*Dye: 10*Dye stock+1.25 Probenecid+1*assay buffer+0.5 U/mL ATP hydrolytic enzyme;
(§4) 2. The cells were cultured to 70%-90% confluency in the cell culture medium at 37° C., 5% CO2. The medium was discarded, and the cells were added with 2 mL of Versene, and the cells were placed in an incubator at 37° C. for 2 to 5 min. The cells were collected by addition of 10 mL of plating medium and counted. The cells were seeded to the 384-well assay plate by addition of 50 μL solution (a density of 1×10^4 cells/well) to each well, and incubated for 16 to 24 hours (at least overnight).
(§5) 3. The medium was discarded, and 30 μL of 1× dye was added. The cells were incubated at 37° C. in the dark for 60 min.
(§6) 4. The compound powder was dissolved in DMSO to obtain a 20 mM stock solution. 180× compound with required concentration was formulated, and diluted in gradient for concentration points.
(§7) 5. Preparation of compound plate: 500 nL of 180× compound was transferred to the compound plate (source plate for FLIPR) using ECHO. 30 μL of assay buffer was added to each well, and the plate was shaken gently for 20 to 40 minutes.
(§8) 6. Determination: 15 μL of 3× compound was taken from each well and added to the cell plate. The samples were added by FLIPR instrument, and the calcium signals were detected. After 15 minutes, 22.5 μL of 3× agonist (EC80 concentration) was added to each well and the calcium signals were detected.
(§9) The calcium signal values were determined by FLIPR. The ratio of the 340/510 nm wavelength signals to 380/510 nm wavelength signals was used as the calculated results for each sampling time point in the experiment. The calculation of maximum minus minimum was derived from the ratio signal curve.
(§10) The percent inhibition rate and ten-point concentration data were fitted to the parametric nonlinear logistic equation by using GraphPad prism to calculate the IC50 values of the compounds.

For data set [6], the target named is T2, 1321N1-hP2X2/3 receptor (Homo sapiens, UniProt P56373+Q9UBL9).
T2 construct: host or cells: 1321N1
T2 sequence (P56373 1-397): T1 sequence (P56373 1-397)
T2 sequence (Q9UBL9 1-471): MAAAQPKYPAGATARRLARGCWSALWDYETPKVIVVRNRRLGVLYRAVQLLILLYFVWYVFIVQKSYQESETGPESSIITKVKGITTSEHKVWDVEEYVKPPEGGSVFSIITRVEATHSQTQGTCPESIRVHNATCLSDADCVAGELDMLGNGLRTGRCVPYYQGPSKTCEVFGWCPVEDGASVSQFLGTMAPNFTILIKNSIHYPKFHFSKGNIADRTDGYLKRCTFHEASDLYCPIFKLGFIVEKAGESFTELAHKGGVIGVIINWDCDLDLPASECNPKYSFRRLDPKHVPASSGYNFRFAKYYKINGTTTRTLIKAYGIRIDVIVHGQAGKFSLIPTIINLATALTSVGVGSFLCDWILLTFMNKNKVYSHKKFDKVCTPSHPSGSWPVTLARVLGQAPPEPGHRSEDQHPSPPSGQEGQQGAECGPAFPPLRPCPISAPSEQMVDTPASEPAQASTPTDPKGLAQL
Kind of data set: Calcium ion mobility (FLIPR) in cells stably expressing 1321N1-hP2X2/3 receptors. The class given is cell-based. To be noted: calcium signal, agonist at EC80. The protocol: Test Example 2. Determination of the Effect of the Compounds of the Present Invention on Calcium Ion Mobility in Cells Stably Expressing 1321N1-hP2X2/3 Receptors
To determine the inhibitory activity of the compounds on 1321N1-hP2X2/3 receptor.
Stably transfected cell line: 1321N1-hP2X2/3 (supplied by Shanghai ChemPartner Chemical Research Co., Ltd.).
as §1
Cell culture medium: DMEM+10% FBS+75 μg/mL Hygromycin B+150 μg/mL G418;
as §2, §3, §4, §5, §6, §7, §8, §9, §10

SMILES strings stand for the structures. Where two headings read alike, the source gives them in different places.

On to `CNC(=O)c1cc(F)c(-c2nc3cc(C)ccn3c2C[C@H]2CN(C(=O)OC)CCO2)c(F)c1` [BLU5937], for which, in data set [1], the “primary endpoint of placebo-adjusted reduction in cough frequency” value is “failed to achieve statistical significance”. Besides, the “selectivity to P2X3/P2X2/3” value in data set [2] is reported as “high selectivity”. Further, the side effects result in data set [3] (phase I clinical trials) was “no side effects such as taste side effects appeared”.

`CC(C)(C)c1cc2n(CC(=O)Nc3ccc(F)cn3)c(=O)c3ccc(C(F)(F)F)nc3n2n1` [Example 30, 2-(2-(Tert-butyl)-5-oxo-8-(trifluoromethyl)pyrazolo[1,5-a]pyrido[3,2-e]pyrimidin-4(5H)-yl)-N-(5-fluoropyridin-2-yl)acetamide]: the AUC(0-t) in data set [4] (read-out: Area under curve AUC0-t) is 10900 ng·h/mL. In data set [4] (read-out: Average residence time MRT0-∞), the MRT inf was 2.16 h. Besides, the half-life in data set [4] (read-out: Half life t1/2 (converted)) is 1.36 h. For the same molecule, the Tmax in data set [4] (read-out: Peak time tmax) came out at 0.5 h. In addition, the Cmax in data set [4] (read-out: Plasma concentration Cmax) amounted to 3550 ng/mL. Moreover, the IC50 in data set [5] stood at 0.0882 µM; in data set [6], 14.5 µM.

In the case of `COc1cc(C(C)C)c(Oc2cnc(N)nc2N)cc1S(N)(=O)=O` [MK-7264], in data set [2], the “selectivity to P2X3/P2X2/3” value is listed as “low selectivity”. Moreover, in data set [3] (clinical stage), the side effects entry is given as “loss of taste”.

As usually defined, the Tmax is the time from dosing to the highest level. The term IC50 denotes the point on the concentration scale where inhibition reaches its midpoint.
